Like-named read-outs stand apart in the source and are kept apart here.

What all share (type): cell-based
Series [1] has as its system MOLT-4 cells. The series is described as follows: Cell viability assay, MTS, 72 h, MOLT-4. Conditions: for IC50: Homo sapiens. Here is the method:
(§1) Cancer cells from different tissue origins including acute lymphoblastic leukemia (MOLT4 and RS4; 11), small cell lung cancer (NCI-H146 or simply H146), and multiple myeloma (EJM and H929) were incubated with increasing concentrations of Examples 1-21 or ABT-263 for 72 h. Cell viability was measured by tetrazolium-based MTS assay. 5×10^4 to 1×10^5 suspension cells or 3×10^3 to 5×10^3 adherent cells were seeded and treated in 96-well plates for 72 h. The EC50 values of individual agents were calculated with GraphPad Prism.

The subject of the next series is NCI-H146 cells. The series is described as follows: Cell viability assay, MTS, 48 h, NCI-H146. The conditions noted are these: for IC50: Homo sapiens. Here is the method: (§2) Acute lymphoblastic leukemia cells (MOLT-4 and RS4; 11) or small cell lung cancer (NCI-H146 or simply H146) were incubated with increasing concentrations of Bcl-xL degraders for 48 h. Cell viability was measured by tetrazolium-based MTS assay.

Series [2] has as its system MOLT-4 cells. Description: Cell viability assay, MTS, 48 h, MOLT-4. The conditions noted are these: for IC50: Homo sapiens, MOLT-4, 48 h. The protocol: as §2
The subject of series [3] is human platelets. The series is described as follows: Human platelet viability, MTS assay. Conditions: for IC50: Platelet, MTS assay (Table 2, FIG. 2). The protocol: FIG. 2. depicts dose response curves of ABT-263 and Compound 53 in MOLT-4 T-ALL cells & human platelets determined by MTS assay.
as §1

The subject of a further series is RS4;11 cells. Description: Cell viability assay, MTS, 48 h, RS4;11. The conditions noted are these: for IC50: Homo sapiens, RS4-11, 48 h. The protocol: as §2
The test system of series [4] is human platelets. The series is described as follows: Human platelet viability, 48 h. Conditions: for IC50: Platelet.
For the next series, the system named is RS4 cells. Description: Cell viability assay, MTS, 72 h, RS4;11. Conditions: Homo sapiens. The protocol: as §1
The target of series [5] is T1, Bcl-xL (Homo sapiens, UniProt Q07817). The series is described as follows: Protein degradation assay in human platelets (western blot). Set-up: endogenous in cells; host or cells: human platelets. The conditions noted are these: 16 h. Here is the method: MOLT4 cells and human platelets were incubated with increasing concentrations of test compounds for 16 h. The cells were harvested and lysed in RIPA lysis buffer supplemented with protease and phosphatase inhibitor cocktails. An equal amount of protein (20 μg/lane) was resolved on a pre-cast 4-20% SDS-PAGE gel. Proteins were subsequently transferred to NOVEX PVDF membranes by electrophoresis. The membranes were blocked in blocking buffer (5% non-fat dry milk in TBS-T), and incubated with primary antibodies (at optimized concentrations) overnight at 4° C. After three washings in TBS-T, the membranes were incubated with an appropriate HRP-conjugated secondary antibody for 1 h at room temperature. After extensive washing for three times, the proteins of interest were detected with ECL western blotting detection reagents and recorded with autoradiography (Pierce Biotech, Rockford, Ill., USA). […] The relative band intensity was measured using ImageJ software and normalized to b-actin. The DC50 (concentration with 50% degradation) was calculated using GraphPad Prism.
MOLT-4 cells and human platelets were incubated with increasing concentrations of test compounds for 16 h. […] After extensive washing for three times, the proteins of interest were detected with ECL western blotting detection reagents and recorded with autoradiography (Pierce Biotech, Rockford, Ill., USA). […]
In general terms: A western blot detects proteins with antibodies after separation by electrophoresis.

A further series has as its system caspase-3 and PARP. The series is described as follows: Downstream apoptotic mechanism, western blot of caspase-3 and PARP in MOLT-4 cells. Conditions: after 16 h treatment. The protocol: […] At the end of incubation, cells were harvested for western blot analysis of cleaved and full length caspase-3 and poly (ADP) ribose polymerase (PARP). The antibodies for cleaved caspase-3 (Cat #9661) and PARP (Cat #9532) were purchased from Cell Signaling Technology.

In series [6] the target is T1, Bcl-xL. The series is described as follows: Protein degradation assay in MOLT-4 cells (western blot). The arrangement: endogenous in cells; host or cells: MOLT-4 cells. The conditions noted are these: 16 h, read-out: DC50 (concentration with 50% degradation) of Bcl-xL. The protocol: MOLT4 cells and human platelets were incubated with increasing concentrations of test compounds for 16 h. The cells were harvested and lysed in RIPA lysis buffer supplemented with protease and phosphatase inhibitor cocktails. An equal amount of protein (20 μg/lane) was resolved on a pre-cast 4-20% SDS-PAGE gel. Proteins were subsequently transferred to NOVEX PVDF membranes by electrophoresis. The membranes were blocked in blocking buffer (5% non-fat dry milk in TBS-T), and incubated with primary antibodies (at optimized concentrations) overnight at 4° C. After three washings in TBS-T, the membranes were incubated with an appropriate HRP-conjugated secondary antibody for 1 h at room temperature. After extensive washing for three times, the proteins of interest were detected with ECL western blotting detection reagents and recorded with autoradiography (Pierce Biotech, Rockford, Ill., USA). The primary antibodies for Bcl-xL (Cat #2762), Bcl-2 (Cat #2872), Mcl-1 (Cat #5453) and β-actin (Cat #4970) were purchased from Cell Signaling technology. The relative band intensity was measured using ImageJ software and normalized to b-actin. The DC50 (concentration with 50% degradation) was calculated using GraphPad Prism.
MOLT-4 cells and human platelets were incubated with increasing concentrations of test compounds for 16 h. The cells were harvested and lysed in RIPA lysis buffer supplemented with protease and phosphatase inhibitor cocktails. An equal amount of protein (20 μg/lane) was resolved on a pre-cast 4-20% SDS-PAGE gel. Proteins were subsequently transferred to NOVEX PVDF membranes by electrophoresis. […] After extensive washing for three times, the proteins of interest were detected with ECL western blotting detection reagents and recorded with autoradiography (Pierce Biotech, Rockford, Ill., USA). […] The relative band intensity was measured using ImageJ software and normalized to β-actin. The DC50 was calculated using GraphPad Prism.

[7] abbreviates: MOLT-4 T-ALL cells, MTS assay (Table 2, FIG. 2).
[8] abbreviates: 48 h, read-out: MOLT-4 IC50 (nM, 48 h).
[9] abbreviates: 48 h, read-out: RS4, 11 IC50 (nM, 48 h).
Setting [10] is: 48 hours, read-out: IC50 (48 hours) MOLT-4.
[11] abbreviates: 48 hours, read-out: IC50 (48 hours) RS4;11.

T1 sequence (Q07817 whole entry): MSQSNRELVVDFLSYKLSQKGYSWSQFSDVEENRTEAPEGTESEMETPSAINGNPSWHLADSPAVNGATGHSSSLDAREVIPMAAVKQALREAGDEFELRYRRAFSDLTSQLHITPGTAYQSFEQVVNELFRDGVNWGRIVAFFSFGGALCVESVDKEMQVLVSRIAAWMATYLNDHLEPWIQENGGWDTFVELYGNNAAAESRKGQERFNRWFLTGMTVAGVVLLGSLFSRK

As for `CC1(C)CCC(c2ccc(Cl)cc2)=C(CN2CCN(c3ccc(C(=O)NS(=O)(=O)c4ccc(N[C@H](CCN5CCOCC5)CSc5ccccc5)c(S(=O)(=O)C(F)(F)F)c4)cc3)CC2)C1` [ABT-263, reference compound], the IC50 (usually the concentration needed to halve the response being measured) in the series on MOLT-4 cells [1] (setting [7]) was found to be 202 nM; in the series on NCI-H146 cells, 36 nM; in the series on MOLT-4 cells [2] (setting [8]) it was 201 nM; in the series with human platelets [3] it was 190 nM; with RS4;11 cells (setting [9]), 35 nM; in the series on human platelets [4] it was 0.5 µM.

Turning to `Cc1ncsc1-c1ccc([C@H](C)NC(=O)[C@@H]2C[C@@H](O)CN2C(=O)[C@@H](NC(=O)CCCCCCCCC(=O)NCC2(C)CCC(c3ccc(Cl)cc3)=C(CN3CCN(c4ccc(C(=O)NS(=O)(=O)c5ccc(N[C@H](CCN6CCOCC6)CSc6ccccc6)c(S(=O)(=O)C(F)(F)F)c5)cc4)CC3)C2)C(C)(C)C)cc1` (stereo partly drawn) [Compound 53, N^1-((4′-chloro-4-methyl-6-((4-(4-(((4-(((R)-4-morpholino-1-(phenylthio)butan-2-yl)amino)-3-((trifluoromethyl)sulfonyl)phenyl)sulfonyl)carbamoyl)phenyl)piperazin-1-yl)methyl)-2,3,4,5-tetrahydro-[1,1′-biphenyl]-4-yl)methyl)-N^10—((S)-1-((2S,4R)-4-hydroxy-2-(((S)-1-(4-(4-methylthiazol-5-yl)phenyl)ethyl)carbamoyl)pyrrolidin-1-yl)-3,3-dimethyl-1-oxobutan-2-yl)decanediamide], the IC50 in the series on MOLT-4 cells [1] (setting [7]) was 36 nM; in the series on MOLT-4 cells [1] (MOLT-4 cells, 72 h, MTS) it was 36 nM; in the series with RS4 cells it was 17.4 nM; in the series on human platelets [3], 1550 nM. Further, in the series on MOLT-4 cells [1] (MOLT-4 cells, FIG. 2), the “potency in MOLT-4 cells compared with ABT-263” value is listed as “more potent than ABT-263”. In addition, the “effects on human platelets compared with ABT-263” value in the series with human platelets [3] (FIG. 2) was “substantially less effects on human platelets than ABT-263”.

As to `Cc1ncsc1-c1ccc([C@H](C)NC(=O)[C@@H]2C[C@@H](O)CN2C(=O)[C@@H](NC(=O)CCCCCCCCC(=O)NCC2(C)CCC(c3ccc(Cl)cc3)=C(CN3CCN(c4ccc(C(=O)NS(=O)(=O)c5ccc(N[C@H](CCN6CCOCC6)CSc6ccccc6)c(S(=O)(=O)C(F)(F)F)c5)cc4)CC3)C2)C(C)(C)C)cc1` (stereo partly drawn) [degrader #5, N1-((4′-chloro-4-methyl-6-((4-(4-(((4-(((R)-4-morpholino-1-(phenylthio)butan-2-yl)amino)-3-((trifluoromethyl)sulfonyl)phenyl)sulfonyl)carbamoyl)phenyl)piperazin-1-yl)methyl)-2,3,4,5-tetrahydro-[1,1′-biphenyl]-4-yl)methyl)-N10-((S)-1-((2S,4R)-4-hydroxy-2-(((S)-1-(4-(4-methylthiazol-5-yl)phenyl)ethyl)carbamoyl)pyrrolidin-1-yl)-3,3-dimethyl-1-oxobutan-2-yl)decanediamide], the “Bcl-xL levels in human platelets” value at Bcl-xL [5] is “did not affect Bcl-xL levels”. Moreover, the IC50 in the series on NCI-H146 cells was 88 nM; in the series on MOLT-4 cells [2] (setting [8]), 31 nM; in the series on RS4;11 cells (setting [9]) it was 22.2 nM; with human platelets [4], 3.5 µM. Moreover, the “cleavage of caspase-3 and PARP” value with caspase-3 and PARP is “induced cleavage of caspase-3 and PARP”. For the same compound, on Bcl-xL [6], the DC50 turned out to be 21.5 nM.

On to `Cc1ncsc1-c1ccc([C@H](C)NC(=O)[C@@H]2C[C@@H](O)CN2C(=O)[C@@H](NC(=O)CCCCCCCCC(=O)NC[C@@]2(C)CCC(c3ccc(Cl)cc3)=C(CN3CCN(c4ccc(C(=O)NS(=O)(=O)c5ccc(N[C@H](CCN6CCOCC6)CSc6ccccc6)c(S(=O)(=O)C(F)(F)F)c5)cc4)CC3)C2)C(C)(C)C)cc1` [degrader #41, N1-(((S)-4′-chloro-4-methyl-6-((4-(4-(((4-(((R)-4-morpholino-1-(phenylthio)butan-2-yl)amino)-3-((trifluoromethyl)sulfonyl)phenyl)sulfonyl)carbamoyl)phenyl)piperazin-1-yl)methyl)-2,3,4,5-tetrahydro-[1,1′-biphenyl]-4-yl)methyl)-N10-((S)-1-((2S,4R)-4-hydroxy-2-(((S)-1-(4-(4-methylthiazol-5-yl)phenyl)ethyl)carbamoyl)pyrrolidin-1-yl)-3,3-dimethyl-1-oxobutan-2-yl)decanediamide], for which the IC50 in the series on NCI-H146 cells was 314 nM; in the series on MOLT-4 cells [2] (setting [8]), 154 nM; with MOLT-4 cells [2] (setting [10]), 150 to 500 nM; with RS4;11 cells (setting [9]) it was 497 nM; with RS4;11 cells (setting [11]) it was greater than 500 nM; in the series with human platelets [4], 10 µM. Besides, at Bcl-xL [6], the DC50 came to 101 nM.

`Cc1ncsc1-c1ccc([C@H](C)NC(=O)[C@@H]2C[C@@H](O)CN2C(=O)[C@@H](NC(=O)CCCCCCCCC(=O)NC[C@]2(C)CCC(c3ccc(Cl)cc3)=C(CN3CCN(c4ccc(C(=O)NS(=O)(=O)c5ccc(N[C@H](CCN6CCOCC6)CSc6ccccc6)c(S(=O)(=O)C(F)(F)F)c5)cc4)CC3)C2)C(C)(C)C)cc1` [degrader #42, N1-(((R)-4′-chloro-4-methyl-6-((4-(4-(((4-(((R)-4-morpholino-1-(phenylthio)butan-2-yl)amino)-3-((trifluoromethyl)sulfonyl)phenyl)sulfonyl)carbamoyl)phenyl)piperazin-1-yl)methyl)-2,3,4,5-tetrahydro-[1,1′-biphenyl]-4-yl)methyl)-N10-((S)-1-((2S,4R)-4-hydroxy-2-(((S)-1-(4-(4-methylthiazol-5-yl)phenyl)ethyl)carbamoyl)pyrrolidin-1-yl)-3,3-dimethyl-1-oxobutan-2-yl)decanediamide]: the “potency in killing NCI-H146 cells compared with ABT-263” value in the series with NCI-H146 cells (FIG. 7) is listed as “equally potent”. Also, the IC50 with NCI-H146 cells is 45 nM; in the series with MOLT-4 cells [2] (setting [8]), 15.2 nM; in the series on MOLT-4 cells [2] (setting [10]) it was less than 50 nM; with RS4;11 cells (setting [9]) it was 9.9 nM; with RS4;11 cells (setting [11]), less than 50 nM; with human platelets [4] it was 1.09 µM. For the same compound, the “potency in killing MOLT-4 cells compared with ABT-263” value in the series on MOLT-4 cells [2] (48 h, FIG. 7) was “more potent”. Besides, the “potency in killing RS4;11 cells compared with ABT-263” value in the series on RS4;11 cells (48 h, FIG. 7) is “more potent”. Also, the “effects on human platelets compared with ABT-263” value in the series on human platelets [4] (FIG. 7) is on record as “substantially less effects on human platelets”. Further, the DC50 on Bcl-xL [6] came out at 11.5 nM.

The values are drawn from patent publication US20220169628A1 (University of Florida Research Foundation, Incorporated, priority 2019, published 2022).
